Assay: molar heat capacity at constant pressure
Conditions: 101.33 kPa, DSC

O=[N+]([O-])[O-].O=[N+]([O-])[O-].[Ca+2] [calcium nitrate]
Conditions	molar heat capacity at constant pressure [J/K/mol]
140.18 K, Crystal 2	107.65
141.18 K, Crystal 2	107.79
142.18 K, Crystal 2	107.93
143.18 K, Crystal 2	108.08
144.18 K, Crystal 2	108.26
145.18 K, Crystal 2	108.53
146.18 K, Crystal 2	108.77
147.18 K, Crystal 2	109.04
148.18 K, Crystal 2	109.41
149.18 K, Crystal 2	109.53
150.18 K, Crystal 2	109.66
151.18 K, Crystal 2	110.04
152.18 K, Crystal 2	110.2
153.18 K, Crystal 2	110.55
154.18 K, Crystal 2	110.68
155.18 K, Crystal 2	111.12
156.18 K, Crystal 2	111.45
157.18 K, Crystal 2	111.69
158.18 K, Crystal 2	111.99
159.18 K, Crystal 2	112.21
160.18 K, Crystal 2	112.56
161.18 K, Crystal 2	112.86
162.18 K, Crystal 2	113.24
163.18 K, Crystal 2	113.35
164.18 K, Crystal 2	113.45
165.18 K, Crystal 2	113.94
166.18 K, Crystal 2	114.12
167.18 K, Crystal 2	114.45
168.18 K, Crystal 2	114.73
169.18 K, Crystal 2	114.98
170.18 K, Crystal 2	115.36
171.18 K, Crystal 2	115.66
172.18 K, Crystal 2	116.1
173.18 K, Crystal 2	116.37
174.18 K, Crystal 2	116.66
175.18 K, Crystal 2	117.01
176.18 K, Crystal 2	117.33
177.18 K, Crystal 2	117.64
178.18 K, Crystal 2	117.92
179.18 K, Crystal 2	118.12
180.18 K, Crystal 2	118.62
181.18 K, Crystal 2	118.7
182.18 K, Crystal 2	119.16
183.18 K, Crystal 2	119.36
184.18 K, Crystal 2	119.66
185.18 K, Crystal 2	119.91
186.18 K, Crystal 2	120.23
187.18 K, Crystal 2	120.54
188.18 K, Crystal 2	120.8
189.18 K, Crystal 2	121.2
190.18 K, Crystal 2	121.32
191.18 K, Crystal 2	121.79
192.18 K, Crystal 2	122.02
193.18 K, Crystal 2	122.2
194.18 K, Crystal 2	122.58
195.18 K, Crystal 2	122.7
196.18 K, Crystal 2	123.1
197.18 K, Crystal 2	123.28
198.18 K, Crystal 2	123.48
199.18 K, Crystal 2	123.86
200.18 K, Crystal 2	123.94
201.18 K, Crystal 2	124.39
202.18 K, Crystal 2	124.62
203.18 K, Crystal 2	124.88
204.18 K, Crystal 2	125.24
205.18 K, Crystal 2	125.55
206.18 K, Crystal 2	125.8
207.18 K, Crystal 2	126.11
208.18 K, Crystal 2	126.43
209.18 K, Crystal 2	126.73
210.18 K, Crystal 2	126.95
211.18 K, Crystal 2	127.36
212.18 K, Crystal 2	127.6
213.18 K, Crystal 2	127.82
214.18 K, Crystal 2	128.19
215.18 K, Crystal 2	128.55
216.18 K, Crystal 2	128.82
217.18 K, Crystal 2	129.14
218.18 K, Crystal 2	129.41
219.18 K, Crystal 2	129.69
220.18 K, Crystal 2	129.91
221.18 K, Crystal 2	130.24
222.18 K, Crystal 2	130.55
223.18 K, Crystal 2	130.83
224.18 K, Crystal 2	131.03
225.18 K, Crystal 2	131.19
226.18 K, Crystal 2	131.52
227.18 K, Crystal 2	131.78
228.18 K, Crystal 2	132.06
229.18 K, Crystal 2	132.35
230.18 K, Crystal 2	132.6
231.18 K, Crystal 2	132.91
232.18 K, Crystal 2	133.16
233.18 K, Crystal 2	133.4
234.18 K, Crystal 2	133.66
235.18 K, Crystal 2	134.04
236.18 K, Crystal 2	134.28
237.18 K, Crystal 2	134.56
238.18 K, Crystal 2	134.67
239.18 K, Crystal 2	134.73
240.18 K, Crystal 2	134.88
241.18 K, Crystal 2	134.93
242.18 K, Crystal 2	135.27
243.18 K, Crystal 2	135.75
244.18 K, Crystal 2	136.33
245.18 K, Crystal 2	136.84
246.18 K, Crystal 2	137.21
247.18 K, Crystal 2	137.52
248.18 K, Crystal 2	137.79
249.18 K, Crystal 2	138.02
250.18 K, Crystal 2	138.35
251.18 K, Crystal 2	138.62
252.18 K, Crystal 2	138.99
253.18 K, Crystal 2	139.21
254.18 K, Crystal 2	139.61
255.18 K, Crystal 2	139.92
256.18 K, Crystal 2	140.17
257.18 K, Crystal 2	140.52
258.18 K, Crystal 2	140.74
259.18 K, Crystal 2	140.96
260.18 K, Crystal 2	141.24
261.18 K, Crystal 2	141.46
262.18 K, Crystal 2	141.71
263.18 K, Crystal 2	141.92
264.18 K, Crystal 2	142.15
265.18 K, Crystal 2	142.33
266.18 K, Crystal 2	142.65
267.18 K, Crystal 2	142.87
268.18 K, Crystal 2	143.14
269.18 K, Crystal 2	143.48
270.18 K, Crystal 2	143.75
271.18 K, Crystal 2	144.11
272.18 K, Crystal 2	144.39
273.18 K, Crystal 2	144.69
274.18 K, Crystal 2	145.05
275.18 K, Crystal 2	145.33
276.18 K, Crystal 2	145.65
277.18 K, Crystal 2	145.91
278.18 K, Crystal 2	146.15
279.18 K, Crystal 2	146.49
280.18 K, Crystal 2	146.74
281.18 K, Crystal 2	147.05
282.18 K, Crystal 2	147.32
283.18 K, Crystal 2	147.62
284.18 K, Crystal 2	148.05
285.18 K, Crystal 2	148.47
286.18 K, Crystal 2	149.01
287.18 K, Crystal 2	149.55
288.18 K, Crystal 2	150.15
289.18 K, Crystal 2	150.77
290.18 K, Crystal 1	151.37
291.18 K, Crystal 1	151.12
292.18 K, Crystal 1	150.21
293.18 K, Crystal 1	149.35
294.18 K, Crystal 1	148.69
295.18 K, Crystal 1	148.17
296.18 K, Crystal 1	147.88
297.18 K, Crystal 1	147.79
298.18 K, Crystal 1	147.74
299.18 K, Crystal 1	147.76
300.18 K, Crystal 1	147.88
301.18 K, Crystal 1	148.08
302.18 K, Crystal 1	148.34
303.18 K, Crystal 1	148.7
304.18 K, Crystal 1	149.02
305.18 K, Crystal 1	149.46
306.18 K, Crystal 1	149.88
307.18 K, Crystal 1	150.3
308.18 K, Crystal 1	150.74
309.18 K, Crystal 1	151.11
310.18 K, Crystal 1	151.52
311.18 K, Crystal 1	151.89
312.18 K, Crystal 1	152.28
313.18 K, Crystal 1	152.66
314.18 K, Crystal 1	153.07
315.18 K, Crystal 1	153.52
316.18 K, Crystal 1	153.88
317.18 K, Crystal 1	154.27
318.18 K, Crystal 1	154.64
319.18 K, Crystal 1	154.97
320.18 K, Crystal 1	155.32
321.18 K, Crystal 1	155.55
322.18 K, Crystal 1	155.81
323.18 K, Crystal 1	155.97
324.18 K, Crystal 1	156.09
325.18 K, Crystal 1	156.21
326.18 K, Crystal 1	156.25
327.18 K, Crystal 1	156.31
328.18 K, Crystal 1	156.31
328.78 K, Crystal 1	142.63
329.18 K, Crystal 1	156.34
329.78 K, Crystal 1	143.76
330.18 K, Crystal 1	156.4
330.78 K, Crystal 1	144.52
331.18 K, Crystal 1	156.44
331.78 K, Crystal 1	145.04
332.18 K, Crystal 1	156.55
332.78 K, Crystal 1	145.41
333.18 K, Crystal 1	156.64
333.78 K, Crystal 1	145.78
334.18 K, Crystal 1	156.71
334.78 K, Crystal 1	146.14
335.18 K, Crystal 1	156.85
335.78 K, Crystal 1	146.49
336.18 K, Crystal 1	156.94
336.78 K, Crystal 1	146.84
337.18 K, Crystal 1	157.08
337.78 K, Crystal 1	147.18
338.18 K, Crystal 1	157.1
338.78 K, Crystal 1	147.5
339.18 K, Crystal 1	157.13
339.78 K, Crystal 1	147.78
340.18 K, Crystal 1	157.13
340.78 K, Crystal 1	148.04
341.18 K, Crystal 1	157.22
341.78 K, Crystal 1	148.31
342.18 K, Crystal 1	157.26
342.78 K, Crystal 1	148.58
343.18 K, Crystal 1	157.38
343.78 K, Crystal 1	148.83
344.18 K, Crystal 1	157.49
344.78 K, Crystal 1	149.08
345.18 K, Crystal 1	157.55
345.78 K, Crystal 1	149.33
346.18 K, Crystal 1	157.7
346.78 K, Crystal 1	149.56
347.18 K, Crystal 1	157.84
347.78 K, Crystal 1	149.77
348.18 K, Crystal 1	158
348.78 K, Crystal 1	149.98
349.18 K, Crystal 1	158.16
349.78 K, Crystal 1	150.2
350.18 K, Crystal 1	158.3
350.78 K, Crystal 1	150.42
351.18 K, Crystal 1	158.39
351.78 K, Crystal 1	150.66
352.18 K, Crystal 1	158.48
352.78 K, Crystal 1	150.89
353.18 K, Crystal 1	158.58
353.78 K, Crystal 1	151.12
354.18 K, Crystal 1	158.8
354.78 K, Crystal 1	151.32
355.18 K, Crystal 1	158.94
355.78 K, Crystal 1	151.51
356.18 K, Crystal 1	159.08
356.78 K, Crystal 1	151.68
357.18 K, Crystal 1	159.2
357.78 K, Crystal 1	151.85
358.18 K, Crystal 1	159.38
358.78 K, Crystal 1	152.01
359.18 K, Crystal 1	159.61
359.78 K, Crystal 1	152.18
360.18 K, Crystal 1	159.81
360.78 K, Crystal 1	152.37
361.18 K, Crystal 1	160.09

Source: the NIST ThermoML archive (doi:10.1016/j.jct.2019.03.007)
